# Data reported in patent publication US20230107770A1, “METHOD OF ENHANCING IMMUNOTHERAPY USING ER STRESS PATHWAY INHIBITORS” (H. LEE MOFFITT CANCER CENTER AND RESEARCH INSTITUTE, INC., priority 2020, published 2023).
# Entries after “also recorded” stand apart in the source; their conditions may differ.
# Key:
# [1] = tested on: FSHR+-ID8-Defb29/Vegfa ovarian tumors; experiment: ER stress-targeting therapy combined with FSH-CER T cells in ovarian tumor-bearing mice; format: in vivo; details: MKC8866 i.p. 300 mg/kg or AMG-44 i.p. 12 mg/kg daily for one week; FSH-CER T cells days 7 and 14
# Protocol: The role of the PERK-Chop in the expansion of tumor TRM cells using conditional T cell Chop-null mice was evaluated. In agreement with the inhibitory effect of Chop in TRM development, higher frequency of TRM cells was detected in tumors from T cell-Chop^KO mice compared to controls (FIG. 23A). Next, we tested the effect of the inhibition of PERK (AMG-44) and IRE 1α (MKC8866) during the expansion of IL-2-supplemented human FSH-CER T cells. […] Also, we evaluated the therapeutic effect of the combination of ER stress-targeting therapy and FSH-CER. […]
# Activation of the UPR in cancer cells mediates adaptation processes in the TME, whereas UPR priming in tumor-myeloid cells promotes their immunoregulatory activity. […] As main readouts of therapeutic efficacy, we will monitor tumor burden, overall survival, and tumor CER-T cell infiltration, persistence, and cytotoxic capacity (Exp. C.2.1.1). […] Additionally, we will sort DCs and MDSC from tumor sites and lymphoid organs to quantify the expression of ER stress gene markers, their ability to impair T cell proliferation and IFNγ production, and the levels of the UPR-related immunoinhibitory factors IL-6, PGE2, Cox-2, mPGES-1, and Arginase I. All required methods are established by our groups. […]
# [2] = tested on: IRE1α-generated Xbp1s mRNA; experiment: Xbp1s mRNA in peritoneal leukocytes of ID8-Defb29/Vegfa-bearing mice; format: in vivo; details: MKC8866 300 mg/kg; leukocytes isolated 12 h later
# Description: (§1) FIGS. 19A, 19B, 19C, 19D, 19E, and 19F show Inhibition of IRE1α-XBP1 blunts tumor growth and activates effector T cell activity in tumors. […] Pictures denote the content of hemorrhagic ascites. […] FIGS. 19D, 19E, and 19F show the frequency of T cell populations in peritoneal tumors from ID8-Defb29/Vegfa-bearing mice treated with MKC8866 for two weeks. ***P<0.0001, **P<0.001 (Student's t-test). N=two repeats with a total of 8-10 mice per group.
# (§2) We optimized a therapeutic scheme wherein female mice bearing orthotropic ID8-Defb29/Vegfa tumors for 7 days were treated daily for two weeks with vehicle or MKC8866, a novel small-molecule inhibitor that selectively blocks the RNase domain of IRE1α, impeding the generation of XBP1s.
# [3] = tested on: human FSH-CER T cells; experiment: Expansion of IL-2-supplemented human FSH-CER T cells with ER stress inhibitors; format: cell-based; details: treatment for 5 days
# Protocol: The role of the PERK-Chop in the expansion of tumor TRM cells using conditional T cell Chop-null mice was evaluated. In agreement with the inhibitory effect of Chop in TRM development, higher frequency of TRM cells was detected in tumors from T cell-Chop^KO mice compared to controls (FIG. 23A). Next, we tested the effect of the inhibition of PERK (AMG-44) and IRE 1α (MKC8866) during the expansion of IL-2-supplemented human FSH-CER T cells. […] Also, we evaluated the therapeutic effect of the combination of ER stress-targeting therapy and FSH-CER. Thus, mice bearing FSHR+-ID8-Defb29/Vegfa ovarian tumors for 7 days received daily treatments with MKC8866 (i.p., 300 mg/kg) or AMG-44 (i.p. 12 mg/kg) for one-week, and i.p. transfer of FSH-CER T cells at days 7 and 14 post-tumor challenge. […] We postulate that treatments for longer time periods with ER stress inhibitors will further potentiate the effect of FSH-CER T cells
# [4] = tested on: ID8-Defb29/Vegfa tumors; experiment: Orthotopic ID8-Defb29/Vegfa ovarian tumor model treated with MKC8866; format: in vivo, mice
# Description: as §1, §2
smiles,measurement,setting,value
COc1cc2c(C)c(CC(=O)N3CCOCC3)c(=O)oc2c(C=O)c1O [MKC8866],survival of hosts receiving FSH-CER T cells plus inhibitor,[1],Prolonged survival
same,levels of IRE1α-generated Xbp1s mRNA in peritoneal leukocytes,[2],rapidly and significantly decreased
same,frequency of FSH-CER TRM cells,[3],Higher frequency of FSH-CER TRM cells
same,PD-1 in intra-tumoral CD8+ T cells,[4]; MKC8866-treated mice vs vehicle,upregulation of PD-1; also recorded: substantial elevation of the immune checkpoint PD-1
same,generation of hemorrhagic ascites,[4]; MKC8866 daily for two weeks vs vehicle,impaired generation of hemorrhagic ascites
same,malignant progression,"[4]; MKC8866 daily for two weeks vs vehicle, weight gain",delayed malignant progression
same,capacity of intra-tumoral CD8+ T cells to produce IFNγ and TNFα in situ,[4]; MKC8866 for two weeks,augmenting their capacity to produce both IFNγ and TNFα in situ
same,proportion of proliferating (Ki67+) antigen-experienced (CD44+) CD8+ T cells infiltrating tumors,[4]; MKC8866 for two weeks,increased the proportion
